Experimental data published in paper PMC6147075, “Discovery of novel fragments inhibiting O-acetylserine sulphhydrylase by combining scaffold hopping and ligand–based drug design” (Journal of Enzyme Inhibition and Medicinal Chemistry, 2018).
Like-named read-outs stand apart in the source and are kept apart here.

What was measured:
OASS = settings: cited from earlier work
StOASS-A = target: T1, StOASS-A (Salmonella typhimurium, UniProt P0A1E3); test: Fluorimetric binding titration (PLP emission), StOASS-A; set-up: species or system Salmonella enterica serovar Typhimurium; settings: for LE (OASS-A): LE = (1.37/HA). pIC50, HA = heavy atoms; for Kd: 1 µM StOASS-A, 100 mM Hepes pH 7, 20 °C, read-out: Kd OASS-A
T1 construct: His6 (N, cleaved yes); made in house; host or cells: E. coli Rosetta (DE3)
T1 sequence (P0A1E3 whole entry): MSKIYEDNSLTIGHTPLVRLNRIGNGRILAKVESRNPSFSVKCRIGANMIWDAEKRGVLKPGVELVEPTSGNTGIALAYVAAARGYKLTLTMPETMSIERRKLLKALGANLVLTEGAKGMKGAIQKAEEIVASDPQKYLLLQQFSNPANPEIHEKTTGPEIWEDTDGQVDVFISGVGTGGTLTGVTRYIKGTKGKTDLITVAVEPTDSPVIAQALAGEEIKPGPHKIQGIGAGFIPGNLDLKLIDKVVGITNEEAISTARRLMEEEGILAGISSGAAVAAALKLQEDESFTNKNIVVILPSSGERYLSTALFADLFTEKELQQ
Procedure: (§1) The genes cysK and cysM encoding STOASS-A and STOASS-B, respectively, were subcloned from pET16b[34] to pET19m in order to replace the restriction site for Factor Xa with the one for TEV protease. pET19m-STcysK and pET19m-STcysM were transformed in E. coli Rosetta^TM (DE3) competent cells for protein expression. Protein expression and purification was performed following published protocols[34] with some modifications. Briefly, protein expression was induced on bacterial growth in exponential phase by IPTG for 4 and 5 h for OASS-B and OASS-A, respectively. Cells were lysed by pulsed sonication in 50 mM NaP, 300 mM NaCl, pH 7, with the addition of 1 mg/mL lysozyme. Purification was performed by immobilized metal affinity column (IMAC) on Co^2+ ions (Talon™, Clontech Laboratories, Inc., Mountain View, CA). Proteins were eluted with 250 mM (His6-OASS-A) or 600 mM (His6-OASS-B) imidazol. His-tag was removed from His6-OASS-A by treatment with TEV protease during O/N dialysis in 10 mM HEPES pH 8. His-tag was removed from His6-OASS-B by treatment with TEV protease in 20 mM HEPES, 100 mM NaCl, 1 mM TCEP pH 8 for 24 h at 5 °C. […] OASS-A was stored in 10 mM HEPES pH 8 and OASS-B in 20 mM HEPES, 100 mM NaCl, 1 mM TCEP pH 8.
(§2) The concentration of bisulfide was saturating (600 μM), whereas the concentration of OAS was set at Km to increase the sensitivity. The dissociation constant of selected compounds for StOASS-A and OASS-B was measured by a fluorimetric method published elsewhere[23]^,[24]. Briefly, a solution containing 1 µM StOASS-A in 100 mM Hepes pH 7 was titrated with increasing concentrations of compound at 20 °C. The fluorescence emission intensity of the PLP cofactor at 505 nm upon excitation at 412 nm was collected after each addition, subtracted by the blank and normalized by the protein dilution. The dependence of the emission intensity at 505 nm on the concentration of the compound was fitted to a binding isotherm[23] to calculate the dissociation constant of the protein-ligand complex.

OASS-B [1] = target: T2, OASS-B (Salmonella typhimurium, UniProt P29848); test: biochemical; type: binding; settings: for LE (OASS-B): LE = (1.37/HA). pIC50, HA = heavy atoms
T2 construct: His6 (N, cleaved yes); made in house; host or cells: E. coli Rosetta (DE3)
T2 sequence (P29848 1-303): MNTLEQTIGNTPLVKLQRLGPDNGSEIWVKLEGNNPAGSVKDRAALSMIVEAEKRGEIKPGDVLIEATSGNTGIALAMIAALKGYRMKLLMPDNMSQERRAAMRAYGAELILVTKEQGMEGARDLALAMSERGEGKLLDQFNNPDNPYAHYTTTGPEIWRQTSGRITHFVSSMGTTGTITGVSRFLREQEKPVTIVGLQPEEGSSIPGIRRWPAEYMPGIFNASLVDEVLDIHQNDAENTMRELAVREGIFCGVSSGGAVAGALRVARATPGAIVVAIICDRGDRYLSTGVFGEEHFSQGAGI
Procedure: as §1, §2

Salmonella = test: Activity against Salmonella in vitro; type: cell-based
[2] = system: cell envelope of Gram-negative bacteria; settings: not told
OASS-B [3] = target: T2, OASS-B; set-up: method as in PMID 26894308; settings: previously reported reference compound 2; cited from earlier work
OASS-A = target: T3, OASS-A (Salmonella typhimurium, UniProt P0A1E3); test: 96-well activity assay (cysteine-ninhydrin), OASS-A; type: biochemical, Salmonella enterica serovar Typhimurium; settings: bisulfide 600 µM, OAS at Km, two replicates
T3 construct: His6 (N, cleaved yes); made in house; host or cells: E. coli Rosetta (DE3)
T3 sequence (P0A1E3 whole entry): as the sequence (P0A1E3 whole entry) above
Procedure: as §1, §2

OASS-B [4] = target: T2, OASS-B; test: 96-well activity assay (cysteine-ninhydrin), OASS-B; type: biochemical; settings: for % inhibition OASS-B: compound 1 µM, bisulfide 600 µM, OAS at Km, two replicates, ns = Not Significant; for inhibition at 1000 µM: read-out: % inhibition OASS-B
Procedure: as §1, §2

[5] = compound 1 µM, ns = Not Significant
[6] = read-out: % inhibition OASS-A, compound 1 mM
[7] = compound 1 mM, read-out: % inhibition OASS-A

Row | Structure (SMILES) | % inhibition OASS-A (OASS-A; [5]) | % inhibition OASS-B (OASS-B [4]) | inhibition at 1000 µM (OASS-B [4]) [%] | inhibition at 1000 µM (OASS-A; [7]) [%] | also measured
1 | C/C=C/[C@@H]1C[C@H]1C(=O)O (racemic) [Compound 1, (±)-trans-2-[(1E)-prop-1-en-1-yl]cyclopropanecarboxylic acid] |  |  |  |  | Kd (OASS; read-out: Kd): 1.46 µM
2 | Cc1ccc(C[C@@]2(C(=O)O)C[C@H]2c2ccccc2)cc1 [Compound 2, (1S,2S)-1–(4-methylbenzyl)-2-phenylcyclopropanecarboxylic acid] |  |  |  |  | LE (OASS-A) (StOASS-A): 0.52 kcal/mol/HA; LE (OASS-B) (OASS-B [1]): 0.50 kcal/mol/HA; activity when tested against Salmonella in vitro (Salmonella): did not show any activity; permeability through the cell envelope [2]: poor permeability; Kd (OASS-B [3]): 0.049 µM; Kd (OASS; read-out: Kd-OASS): 0.028 µM
3 | Cc1ccc(-n2nccc2C(=O)O)cc1 [Compound 4a, 1-(p-tolyl)-1H-pyrazole-5-carboxylic acid] | ns^b | ns | 65 ± 2 |  | % inhibition OASS-A (OASS-A; compound 1 mM): 45 ± 3%; inhibition at 1000 µM (OASS-A; [6]): 50%
4 | O=C(O)c1ccnn1-c1ccccc1 [Compound 4b, 1-phenyl-1H-pyrazole-5-carboxylic acid] | ns |  | 65 ± 1 | 66 ± 1 | inhibition at 1 µM (OASS-B [4]): 11 ± 3%
5 | O=C(O)c1ccn[nH]1 [Compound 4c, 1H-pyrazole-5-carboxylic acid] |  | ns | 82 ± 1 | > 90 | inhibition at 1 µM (OASS-A; [5]): 9 ± 7%; % inhibition OASS-A (OASS-A; compound 1 mM): 94 ± 1%; Kd (StOASS-A): 122 ± 5 µM; LE (OASS-A) (StOASS-A): 0.67 kcal/mol/HA; Kd (OASS-B [1]): 272 ± 10 µM; LE (OASS-B) (OASS-B [1]): 0.61 kcal/mol/HA
6 | O=C(O)c1ccnn1-c1ccc(Cl)cc1 [Compound 4d, 1–(4-chlorophenyl)-1H-pyrazole-5-carboxylic acid] | ns |  | 56 ± 1 | 60 ± 2 | inhibition at 1 µM (OASS-B [4]): 9 ± 6%
7 | O=C(O)c1ccnn1-c1ccc(Br)cc1 [Compound 4e, 1–(4-bromophenyl)-1H-pyrazole-5-carboxylic acid] | ns | ns | 58 ± 2 |  | % inhibition OASS-A (OASS-A; compound 1 mM): 84 ± 1%; inhibition at 1000 µM (OASS-A; [6]): > 80%
8 | CC(C)(C)c1ccc(-n2nccc2C(=O)O)cc1 [Compound 4f, 1–(4-(tert-butyl)phenyl)-1H-pyrazole-5-carboxylic acid] | ns | ns | 52 ± 5 | 47 ± 1 | 
9 | O=C(O)c1ccnn1-c1ccc(F)cc1 [Compound 4g, 1–(4-fluorophenyl)-1H-pyrazole-5-carboxylic acid] |  |  | 62 ± 1 | 95 ± 1 | inhibition at 1 µM (OASS-A; [5]): 8 ± 1%; inhibition at 1 µM (OASS-B [4]): 14 ± 2%
10 | O=C(O)c1ccnn1C1CCCCC1 [Compound 4h, 1-cyclohexyl-1H-pyrazole-5-carboxylic acid] | ns | ns | 30 ± 1 | 57 ± 1 | 
11 | O=C(O)c1ccn(-c2ccc(Cl)cc2)n1 [Compound 5d, 1–(4-chlorophenyl)-1H-pyrazole-3-carboxylic acid] | ns |  | 63 ± 1 | 63 ± 1 | inhibition at 1 µM (OASS-B [4]): 15 ± 2%
12 | O=C(O)c1ccn(-c2ccc(Br)cc2)n1 [Compound 5e, 1–(4-bromophenyl)-1H-pyrazole-3-carboxylic acid] | ns | ns | 35 ± 2 | 62 ± 1 | 
13 | CC(C)(C)c1ccc(-n2ccc(C(=O)O)n2)cc1 [Compound 5f, 1–(4-(tert-butyl)phenyl)-1H-pyrazole-3-carboxylic acid] | ns |  | 82 ± 1 | 81 ± 1 | inhibition at 1 µM (OASS-B [4]): 11 ± 6%
14 | O=C(O)c1ccn(-c2ccc(F)cc2)n1 [Compound 5g, 1–(4-fluorophenyl)-1H-pyrazole-3-carboxylic acid] | ns | ns | 36 ± 3 | 73 ± 1 | 
15 | O=C(O)c1ccn(C2CCCCC2)n1 [Compound 5h, 1-cyclohexyl-1H-pyrazole-3-carboxylic acid] | ns | ns | 43 ± 3 | 79 ± 1 | 
16 | O=C(O)c1ccc[nH]1 [Compound 14, 1H-pyrrole-2-carboxylic acid] |  |  |  |  | Kd (StOASS-A): 59 ± 11 µM; LE (OASS-A) (StOASS-A): 0.72 kcal/mol/HA; Kd (OASS-B [1]): 465 ± 50 µM; LE (OASS-B) (OASS-B [1]): 0.60 kcal/mol/HA
17 | O=C(O)c1nccs1 [Compound 16, thiazole-2-carboxylic acid] |  |  |  |  | Kd (StOASS-A): 52 ± 6 µM; LE (OASS-A) (StOASS-A): 0.74 kcal/mol/HA; Kd (OASS-B [1]): 338 ± 14 µM; LE (OASS-B) (OASS-B [1]): 0.60 kcal/mol/HA
